Results taken from patent EP0340171A2, “Cyclodextrin complexes of 5-aminohexahydropyrimidine compounds” (WARNER-LAMBERT COMPANY, priority 1988, dated 1989).
Entries after “also recorded” stand apart in the source; their conditions may differ.

How the values were obtained:
[1] = solubility in deionized water; assay type: physicochemical
Experimental: When complexed with beta-cyclodextrin the solubility increases to about 10 mg hexetidine (contained in about 43 mg of complex) in about 10 ml of water -- without the addition of any alcohol or any surfactant. This is an increase from about 0 to about 0.1% w/v in solubility. The complex, 43 mg, was dissolved in 10 ml of deionized water at about 50°C using vortexing. The complex, assayed by UV to be a 1:1 complex of hexetidine: beta-cyclodextrin, contains 10 mg of hexetidine in the 43 mg of complex, and therefore, a 0.1% w/v solution of hexetidine was made. The solution of the 43 mg of complex in 10 ml of water was clear.

[2] = cited from earlier work

solubility (hexetidine in aqueous solution) ([1]; water, no ethanol and no surfactant): about 0 % w/v
SMILES: CCCCC(CC)CN1CN(CC(CC)CCCC)CC(C)(N)C1 (centres unmarked) [hexetidine, 5-amino-1,3 bis(2-ethylhexyl)-5-methyl-hexahydropyrimidine]
solubility in water (in words) ([1]; 10 mg hexetidine, alone or as 43 mg of complex, in 10 ml of water): virtually insoluble in water; also recorded: did not dissolve | solution of hexetidine in known in the art compositions ([2]; about 9.5% v/v ethanol and about 0.7% v/v of surfactant (e.g., TWEEN 80)): ~0.1 % w/v | solubility in ethanol ([2]; ethanol): soluble in ethanol | solubility in water ([2]; water): practically insoluble in water
